Measurements as given in patent US20040214805A1, “Method and compositions for treating pulmonary diseases” (SmithKline Beecham Corporation, priority 1999, published 2004).
Where two headings read alike, the source gives them in different places.

Tests used:
[1] = tested on: patients with mild/moderate asthma; test: Cilomalast/low dose inhaled corticosteroid (ICS) dose-ranging study; type: in vivo, human
Source text: This was a phase IIB, randomised, placebo-controlled, dose-ranging study with a one-week single-blind placebo run-in, a 6-week double-blind treatment phase and a one-week follow-up phase in patients with mild/moderate asthma.
Study population: Male or female patients aged between 18 and 70 years, with mild to moderate asthma, who were not adequately controlled on low doses of inhaled corticosteroids (no greater than 500 mcg beclomethasone dipropionate/day or equivalent) were eligible. Patients were required to have a screening FEV1 of >50% and <80% predicted for height, age, sex and race and a 12% or greater reversibility after beta-2 agonist administration. Patients had to have a summary symptom score of 6 or more on 4 out of 7 days preceding the baseline visit to be randomised. The sample size was 300 evaluable patients.
cilomalast was dosed at 5 mg, 10 mg 15 mg twice daily for 6 weeks.
Subjects were on a median of 500 mcg of beclometbasone equivalent although the mean dose of ICS was 652 mcg.
Primary endpoint: change from baseline to endpoint in trough clinic expiratory volume in 1 second (FEV1), changes in clinic FEV1 every week and over a 4 hour period following first dose of double-blind medication.
The primary efficacy measure was defined as the change from baseline to endpoint in trough clinic forced expiratory volume in 1 second (FEV1). Changes in clinic FEV1 were also analysed at each week of the double-blind treatment phase and over a 4-hour period immediately following the first dose of double-blind medication. Secondary efficacy variables were use of inhaled/nebulised beta-2 agonist and overnight asthma symptoms. Tertiary efficacy variables were forced vital capacity (FVC), clinic peak expiratory flow rate (PEFR), forced expiratory flow at 25-75% (FEF25-75) and 75% (FEF75), domiciliary PEFR variability, domiciliary PEFR (morning and evening), summary symptom score (a composite score of overnight, morning and overall daytime asthma), morning asthma, overall daytime asthma, inhaled corticosteroid use, cough, wheeze, breathlessness/chest tightness, asthma exacerbation rates and global assessments by the physician and the patient.

[2] = tested on: patients with mild/moderate asthma on ≧800 mcg of beclomethasone; test: Cilomalast/high dose inhaled corticosteroid (ICS) study; type: in vivo, human
Method: R, DB, PC, DR in patients with mild/moderate asthma on ≧800 mcg of beclomethasone
cilomalast® doses were 5, 10 and 15 mg twice daily for 4 weeks.
Primary endpoint: trough clinic FEV1.
Secondary endpoints: morning PEFR, symptoms, PEFR variability, evening PEFR, clinic PEFR, FEF25-75, FEF75, rescue medication used.

asthma patients [3] = test: Allergen challenge studies (LAR); type: in vivo, human; conditions: Ariflo 15 mg bd
Source text: Legend: Data on cilomalast was taken from the protocol analysis in asthma patients on <652 mcg of ICS. Data on montelukast (MT), budesonide (BDP) and both was taken from a single study in the Singulair SBA that examined the effect of Singulair relative to inhaled […] corticosteroids.

[4] = developed as an antidepressant; e.g. pyrosis, nausea and emesis; cited from earlier work
asthma patients [5] = conditions: comparators, cited from earlier work

COc1ccc([C@]2(C#N)CC[C@@H](C(=O)O)CC2)cc1OC1CCCC1 [cilomalast, cis 4-cyano-4-(3-cyclopentyloxy-4-methoxyphenyl)cyclohexan-1-carboxylic acid]
4 hour FEV1, domiciliary PEFR, FEF25-75, physician and patient global assessment scores ([1]; 15 mg BID): Corroborating support | improvement in trough FEV1 at endpoint, ITT analysis, vs placebo ([1]; 15 mg BID, 6 weeks, on low dose ICS, p=0.062, no statistical improvement): 0.16 L | improvement in trough FEV1, excluding patients on ICS doses >500 mcg of beclamethasone ([1]; 15 mg BID, p=0.033, significant): 0.21 L | dose ordering of response for trough FEV1 at endpoint, ITT analysis ([1]; 5, 10, 15 mg twice daily for 6 weeks): dose-ordered | comparison with Singulair when added to low dose ICS ([1]; placebo group also improved in the cilomalast study): outperformed Singulair | 4 hour clinic FEV1, clinic FVC, PEFR ([2]; 10 mg BID): numerically superior results | improvement in trough FEV1, repeated measures analysis, patients on <800 mcg of ICS excluded ([2]; 10 mg BID, p=0.009): 0.16 L | trough concentrations ([2]; 5, 10, 15 mg twice daily): dose proportional | dose ordering for the primary endpoint (trough clinic FEV1) ([2]; 5, 10, 15 mg twice daily, 4 weeks): No dose ordering | change in clinic trough FEV1, ITT analysis ([2]; any dose group (5, 10, 15 mg twice daily, 4 weeks)): No statistically significant change | % AUC of LAR (treatment effect) (asthma patients [3]): 3.5% | % Max fall LAR (treatment effect) (asthma patients [3]): 1.3% | % Protection AUC LAR (asthma patients [3]): NONE | % Protection max fall LAR (asthma patients [3]): NONE

COc1ccc(C2CNC(=O)C2)cc1OC1CCCC1 (stereo not shown) [rolipram]
side effects in clinical studies [4]: produces gastrointestinal effects

O=C(Nc1cccc2c(=O)cc(-c3nnn[nH]3)oc12)c1ccc(OCCCCc2ccccc2)cc1 [Ultair]
% Max fall LAR (treatment effect) (asthma patients [5]; ICS = 800 mcg budesonide): 10.7% | % Protection max fall LAR (asthma patients [5]; ICS = 800 mcg budesonide): 30.8% | % AUC of LAR (treatment effect) (asthma patients [5]): 42.4% | % Protection AUC LAR (asthma patients [5]): 42.6%
